# How the values were obtained:
# [1] = biological target: Serine/threonine-protein kinase B-raf (Homo sapiens, UniProt P15056, V600E); test: Inhibition of B-Raf V600E mutant
# [2] = Permeability across human Caco2 cells; format: ADME, cell-based; details: Caco-2, read-out: permeability
# [3] = Cmax in mouse at 25 mg/kg, po; format: ADME, organism-based; set-up: dose 25 mg/kg, route oral; details: in vivo
# [4] = AUC (0 to infinity) in mouse at 25 mg/kg, po; format: ADME, organism-based; set-up: time infinity, dose 25 mg/kg, route oral; details: plasma
# Sequence of Serine/threonine-protein kinase B-raf (P15056 2-766 V600E limits assumed): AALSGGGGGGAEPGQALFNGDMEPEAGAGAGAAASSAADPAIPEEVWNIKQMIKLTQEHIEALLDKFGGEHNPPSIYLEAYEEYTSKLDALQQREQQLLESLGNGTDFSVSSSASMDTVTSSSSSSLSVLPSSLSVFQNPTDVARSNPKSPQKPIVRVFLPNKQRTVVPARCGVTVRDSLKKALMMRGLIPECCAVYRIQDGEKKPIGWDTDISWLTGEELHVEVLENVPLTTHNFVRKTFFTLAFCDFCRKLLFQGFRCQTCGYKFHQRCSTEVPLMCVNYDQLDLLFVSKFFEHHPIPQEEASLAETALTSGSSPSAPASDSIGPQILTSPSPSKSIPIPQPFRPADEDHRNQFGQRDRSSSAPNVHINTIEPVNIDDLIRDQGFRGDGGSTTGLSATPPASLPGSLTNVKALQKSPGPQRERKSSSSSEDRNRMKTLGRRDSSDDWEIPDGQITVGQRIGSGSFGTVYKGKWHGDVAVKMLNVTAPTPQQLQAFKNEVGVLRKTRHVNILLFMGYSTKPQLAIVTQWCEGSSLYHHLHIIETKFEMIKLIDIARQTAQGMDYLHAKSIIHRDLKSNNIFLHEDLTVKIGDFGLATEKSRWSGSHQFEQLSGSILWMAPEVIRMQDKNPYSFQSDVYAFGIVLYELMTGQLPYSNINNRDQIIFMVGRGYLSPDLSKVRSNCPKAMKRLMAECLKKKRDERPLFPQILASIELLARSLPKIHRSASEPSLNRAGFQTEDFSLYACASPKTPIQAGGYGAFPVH
Structure (SMILES),IC50 [1] [nM],also measured
OCCCc1n[nH]c2c(Cl)ccc(Nc3c(-c4ncccn4)oc4cnccc34)c12,0.8,–
CC(C)NC(=O)c1oc2cnccc2c1Nc1ccc2c(O)cccc2c1,1.4,–
CCOC(=O)c1oc2cnccc2c1Nc1ccc2c(O)c(F)ccc2c1,3,–
CC(C)NC(=O)c1oc2cnccc2c1Nc1ccc2c(c1)CN/C2=N\O,5.2,–
Cc1cc(Nc2c(-c3ncccn3)oc3cnccc23)c2cn[nH]c2c1Cl,0.3,–
CCc1n[nH]c2c(Cl)ccc(Nc3c(-c4ncccn4)oc4cnccc34)c12,0.8,–
CC(C)NC(=O)c1oc2cnccc2c1Nc1ccc(Cl)c(O)c1,4,–
CCOC(=O)c1oc2cnccc2c1Nc1ccc2c(N)cccc2c1,52,–
CN(C)/C=C/NC(=O)c1oc2cnccc2c1Nc1ccc2c(O)cccc2c1,5,–
CCOC(=O)c1oc2cnccc2c1Nc1ccc2c(O)cccc2c1,1.1,–
CCOC(=O)c1oc2cnccc2c1Nc1cnc2ccccc2c1,30,–
O=C(Nc1ncccn1)c1oc2cnccc2c1Nc1ccc(Cl)c(O)c1,1.6,–
CCOC(=O)c1oc2cnccc2c1Nc1ccc2c(c1)CC/C2=N/O,< 2,–
CC(C)NC(=O)c1oc2cnccc2c1Nc1ccc(Cl)c2[nH]ncc12,2.7,–
CCOC(=O)c1oc2cnccc2c1Nc1ccc2ccccc2c1,179,–
Clc1cc(Nc2c(-c3ncccn3)oc3cnccc23)c2cn[nH]c2c1,5.7,–
NCCCc1n[nH]c2c(Cl)ccc(Nc3c(-c4ncccn4)oc4cnccc34)c12,4.3,–
CCOC(=O)c1oc2cnccc2c1Nc1ccc2c(c1)CCC2=O,93,–
CCOC(=O)c1oc2cnccc2c1Nc1ccc(Cl)c(O)c1,2.3,–
CN1CCN(Cc2cnc(-c3oc4cnccc4c3Nc3ccc4c(O)cccc4c3)nc2)CC1,2,–

# Second part, led by results:
IC50 [1] [nM],Structure (SMILES),also measured
0.5,O/N=C1\NCc2cc(Nc3c(-c4ncccn4)oc4cnccc34)ccc21,–
16,O=C1CCc2cc(Nc3c(-c4ncccn4)oc4cnccc34)ccc21,–
14,c1cnc(-c2oc3cnccc3c2Nc2cccc3[nH]ncc23)nc1,–
42.9,CN/C=C/NC(=O)c1oc2cnccc2c1Nc1ccc2c(c1)Cc1c[nH]nc1-2,–
4,c1cnc(-c2oc3cnccc3c2Nc2ccc3c(c2)Cc2c[nH]nc2-3)nc1,Papp [2]: > 8 ×10⁻⁶ cm/s; Cmax [3]: 2220 ng/mL; AUC(0-inf) [4]: 10400 ng·h/mL
2,Fc1ccc(Nc2c(-c3ncccn3)oc3cnccc23)c2cn[nH]c12,–
240,Clc1ccc2[nH]ncc2c1Nc1c(-c2ncccn2)oc2cnccc12,Papp [2]: 2 ×10⁻⁶ cm/s; Cmax [3]: 3730 ng/mL; AUC(0-inf) [4]: 17000 ng·h/mL
4.2,Clc1ccc(Nc2c(-c3ncccn3)oc3cnccc23)c2cn[nH]c12,Papp [2]: < 2 ×10⁻⁶ cm/s
38,CC(C)NC(=O)c1oc2cnccc2c1Nc1ccc2c(c1)Cc1c[nH]nc1-2,–
2.4,Cc1ccc(Nc2c(-c3ncccn3)oc3cnccc23)c2cn[nH]c12,–
1,Oc1cccc2cc(Nc3c(-c4ncccn4)oc4cnccc34)ccc12,–

# Source: ChEMBL document CHEMBL1667830, “Non-oxime inhibitors of B-Raf(V600E) kinase” (Bioorg Med Chem Lett, 2011)
